Structures are written as SMILES. Where two headings read alike, the source gives them in different places.

In one assay the test system is MCF7 cells. The experiment in a line: In vitro cell proliferation assays (Examples 902 and 903), MCF7. It counts as cell-based. The settings on record: read-out: ER-alpha MCF7 HCS (EC50).
Assay [1] deals with T1, estrogen receptor alpha (ESR1) (Homo sapiens, UniProt P03372).
T1 construct: endogenous in cells; host or cells: MCF7 breast cancer cells
T1 sequence (P03372 1-595): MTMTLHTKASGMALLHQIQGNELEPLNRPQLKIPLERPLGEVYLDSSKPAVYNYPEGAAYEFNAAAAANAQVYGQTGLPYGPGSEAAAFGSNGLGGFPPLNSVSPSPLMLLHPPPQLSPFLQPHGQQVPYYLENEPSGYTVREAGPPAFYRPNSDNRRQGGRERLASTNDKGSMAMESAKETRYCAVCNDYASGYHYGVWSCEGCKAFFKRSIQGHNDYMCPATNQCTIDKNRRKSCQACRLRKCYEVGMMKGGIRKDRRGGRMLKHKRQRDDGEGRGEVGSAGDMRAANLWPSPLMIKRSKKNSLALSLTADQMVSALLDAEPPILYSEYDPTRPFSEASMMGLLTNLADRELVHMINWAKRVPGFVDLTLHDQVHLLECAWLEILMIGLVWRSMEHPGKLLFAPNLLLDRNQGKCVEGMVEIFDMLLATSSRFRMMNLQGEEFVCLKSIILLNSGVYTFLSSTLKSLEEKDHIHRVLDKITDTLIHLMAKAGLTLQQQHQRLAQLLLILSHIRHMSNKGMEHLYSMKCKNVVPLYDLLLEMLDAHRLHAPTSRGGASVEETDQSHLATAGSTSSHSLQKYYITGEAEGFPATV
Briefly: Breast Cancer Cell ERa High Content Fluorescence Imaging Degradation Assay (Example 901). It counts as cell-based. The following applies: Table 1a; MCF7 breast cancer cells, 4 hours; plateau of the maximal effect; DMSO and Fulvestrant define 0% and 100% changes in ESR1. The gist of the method: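 MCF7 cells in phenol red-free RPMI with 10% charcoal-stripped FBS, exposed to compound at 0.05–835 nM (10-point, 1.8×, duplicate; 0.84% DMSO) for 4 h at 37 °C. Fixed cells immunostained for ESR1 (F10 mAb, Alexa 488) with Hoechst nuclear mask; nuclear ESR1 intensity imaged per cell. DMSO and 5 nM fulvestrant set 0%/100%; EC50 and Sinf by robust fit.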

For `C[C@@H]1Cc2c([nH]c3ccc(F)cc23)[C@@H](c2c(F)cc(C(O)C3CN(CCCF)C3)cc2F)N1CC(C)(F)CO` (stereo partly drawn) [Compound 113, 3-((1R,3R)-1-(2,6-difluoro-4-((1-(3-fluoropropyl)azetidin-3-yl)(hydroxy)methyl)phenyl)-6-fluoro-3-methyl-1,3,4,9-tetrahydro-2H-pyrido[3,4-b]indol-2-yl)-2-fluoro-2-methylpropan-1-ol], the EC50 in the assay on MCF7 cells (Table 1a) was 0.884 nM. Besides, the “ER-alpha MCF7 HCS (S inf)” value in assay [1] is −91.41%.

In the case of `C[C@@H]1Cc2c([nH]c3ccccc23)[C@@H](c2ccc(C(O)C3CN(CCCF)C3)cc2F)N1CC(F)(F)CO` (stereo partly drawn) [Compound 116, 2,2-difluoro-3-((1R,3R)-1-(2-fluoro-4-((1-(3-fluoropropyl)azetidin-3-yl)(hydroxy)methyl)phenyl)-3-methyl-1,3,4,9-tetrahydro-2H-pyrido[3,4-b]indol-2-yl)propan-1-ol], the EC50 in the assay with MCF7 cells (Homo sapiens, MCF7, Table 1a) was 0.031 nM. The “ER-alpha MCF7 HCS (S inf)” value in assay [1] is given as −98.7%.

With `C[C@@H]1Cc2c([nH]c3ccccc23)[C@@H](c2ccc(C(O)C3CN(CCCF)C3)cc2)N1CC(F)(F)CO` (stereo partly drawn) [Compound 117, 2,2-difluoro-3-((1R,3R)-1-(4-((1-(3-fluoropropyl)azetidin-3-yl)(hydroxy)methyl)phenyl)-3-methyl-1,3,4,9-tetrahydro-2H-pyrido[3,4-b]indol-2-yl)propan-1-ol], the EC50 in the assay with MCF7 cells (Homo sapiens, MCF7, Table 1a) was 0.066 nM. Also, the “ER-alpha MCF7 HCS (S inf)” value in assay [1] is given as −100%.

Regarding `C[C@@H]1Cc2c([nH]c3ccc(F)cc23)[C@@H](c2c(F)cc(C(O)C3CN(CCCF)C3)cc2F)N1CC(C)(F)CO` (stereo partly drawn) [Compound 118, 3-((1R,3R)-1-(2,6-difluoro-4-((1-(3-fluoropropyl)azetidin-3-yl)(hydroxy)methyl)phenyl)-6-fluoro-3-methyl-1,3,4,9-tetrahydro-2H-pyrido[3,4-b]indol-2-yl)-2-fluoro-2-methylpropan-1-ol], the EC50 in the assay with MCF7 cells (Table 1a) came out at 0.022 nM. Besides, the “ER-alpha MCF7 HCS (S inf)” value in assay [1] is on record as −96.56%.

For the compound `C[C@@H]1Cc2c([nH]c3ccccc23)[C@@H](c2c(F)cc([C@H](O)C3CN(CCCF)C3)cc2F)N1CC(F)(F)F` [Compound 119, (R)-(3,5-difluoro-4-((1R,3R)-3-methyl-2-(2,2,2-trifluoroethyl)-2,3,4,9-tetrahydro-1H-pyrido[3,4-b]indol-1-yl)phenyl)(1-(3-fluoropropyl)azetidin-3-yl)methanol], the concentration giving a half-maximal response (EC50) in the assay with MCF7 cells (Homo sapiens, MCF7, Table 1a) turned out to be 0.085 nM. Further, the “ER-alpha MCF7 HCS (S inf)” value in assay [1] is given as −98.93%.

With `C[C@@H]1Cc2c([nH]c3ccccc23)[C@@H](c2c(F)cc([C@@H](O)C3CN(CCCF)C3)cc2F)N1CC(F)(F)F` [Compound 120, (S)-(3,5-difluoro-4-((1R,3R)-3-methyl-2-(2,2,2-trifluoroethyl)-2,3,4,9-tetrahydro-1H-pyrido[3,4-b]indol-1-yl)phenyl)(1-(3-fluoropropyl)azetidin-3-yl)methanol], in the assay with MCF7 cells (Homo sapiens, MCF7, Table 1a), the EC50 was 0.037 nM. Also, the “ER-alpha MCF7 HCS (S inf)” value in assay [1] was −99.17%.

On to `C[C@@H]1Cc2c([nH]c3ccccc23)[C@@H](c2ccc([C@H](F)C3CN(CCCF)C3)cc2)N1CC(F)(F)CO` [Compound 123], for which, in the assay with MCF7 cells (Homo sapiens, MCF7, Table 1a), the EC50 worked out at 0.041 nM. Also, the “ER-alpha MCF7 HCS (S inf)” value in assay [1] is −98.38%.

With `C[C@@H]1Cc2c([nH]c3ccccc23)[C@@H](c2ccc([C@@H](F)C3CN(CCCF)C3)cc2)N1CC(F)(F)CO` [Compound 124, 2,2-difluoro-3-((1R,3R)-1-(4-((S)-fluoro(1-(3-fluoropropyl)azetidin-3-yl)methyl)phenyl)-3-methyl-1,3,4,9-tetrahydro-2H-pyrido[3,4-b]indol-2-yl)propan-1-ol], in the assay on MCF7 cells (Homo sapiens, MCF7, Table 1a), the EC50 is 0.022 nM. Besides, the “ER-alpha MCF7 HCS (S inf)” value in assay [1] is given as −96.62%.

For the compound `C[C@@H]1Cc2c([nH]c3ccccc23)[C@@H](c2ccc([C@H](F)C3CN(CCCF)C3)cc2F)N1CC(F)(F)CO` [Compound 125, 2,2-difluoro-3-((1R,3R)-1-(2-fluoro-4-((R)-fluoro(1-(3-fluoropropyl)azetidin-3-yl)methyl)phenyl)-3-methyl-1,3,4,9-tetrahydro-2H-pyrido[3,4-b]indol-2-yl)propan-1-ol], in the assay with MCF7 cells (Homo sapiens, MCF7, Table 1a), the EC50 is 0.019 nM. For the same compound, the “ER-alpha MCF7 HCS (S inf)” value in assay [1] was −98.52%.

With `C[C@@H]1Cc2c([nH]c3ccccc23)[C@@H](c2ccc([C@@H](F)C3CN(CCCF)C3)cc2F)N1CC(F)(F)CO` [Compound 126, 2,2-difluoro-3-((1R,3R)-1-(2-fluoro-4-((S)-fluoro(1-(3-fluoropropyl)azetidin-3-yl)methyl)phenyl)-3-methyl-1,3,4,9-tetrahydro-2H-pyrido[3,4-b]indol-2-yl)propan-1-ol], the EC50 in the assay on MCF7 cells (Homo sapiens, MCF7, Table 1a) came to 0.021 nM. The “ER-alpha MCF7 HCS (S inf)” value in assay [1] is reported as −95.71%.

Consider `C[C@@H]1Cc2c([nH]c3ccccc23)[C@@H](c2ccc([C@H](O)C3CN(CCCF)C3)cc2)N1CC(F)(F)CO` [Compound 127, 2,2-difluoro-3-((1R,3R)-1-(4-((R)-(1-(3-fluoropropyl)azetidin-3-yl)(hydroxy)methyl)phenyl)-3-methyl-1,3,4,9-tetrahydro-2H-pyrido[3,4-b]indol-2-yl)propan-1-ol], for which, in the assay with MCF7 cells (Homo sapiens, MCF7, Table 1a), the EC50 is 0.071 nM. Moreover, the “ER-alpha MCF7 HCS (S inf)” value in assay [1] was −97.29%.

With `C[C@@H]1Cc2c([nH]c3ccccc23)[C@@H](c2ccc([C@@H](O)C3CN(CCCF)C3)cc2)N1CC(F)(F)CO` [Compound 128, 2,2-difluoro-3-((1R,3R)-1-(4-((S)-(1-(3-fluoropropyl)azetidin-3-yl)(hydroxy)methyl)phenyl)-3-methyl-1,3,4,9-tetrahydro-2H-pyrido[3,4-b]indol-2-yl)propan-1-ol], in the assay on MCF7 cells (Homo sapiens, MCF7, Table 1a), the concentration giving a half-maximal response (EC50) amounted to 0.088 nM. Besides, in assay [1], the “ER-alpha MCF7 HCS (S inf)” value was −97.31%.

On to `C[C@@H]1Cc2c([nH]c3ccccc23)[C@@H](c2ccc([C@H](O)C3CN(CCCF)C3)cc2F)N1CC(F)(F)CO` [Compound 129, 2,2-difluoro-3-((1R,3R)-1-(2-fluoro-4-((R)-(1-(3-fluoropropyl)azetidin-3-yl)(hydroxy)methyl)phenyl)-3-methyl-1,3,4,9-tetrahydro-2H-pyrido[3,4-b]indol-2-yl)propan-1-ol], for which, in the assay on MCF7 cells (Homo sapiens, MCF7, Table 1a), the EC50 is 0.034 nM. Moreover, the “ER-alpha MCF7 HCS (S inf)” value in assay [1] is −98.76%.

As for `C[C@@H]1Cc2c([nH]c3ccccc23)[C@@H](c2ccc([C@@H](O)C3CN(CCCF)C3)cc2F)N1CC(F)(F)CO` [Compound 130, 2,2-difluoro-3-((1R,3R)-1-(2-fluoro-4-((S)-(1-(3-fluoropropyl)azetidin-3-yl)(hydroxy)methyl)phenyl)-3-methyl-1,3,4,9-tetrahydro-2H-pyrido[3,4-b]indol-2-yl)propan-1-ol], the EC50 in the assay with MCF7 cells (Homo sapiens, MCF7, Table 1a) is 0.037 nM. In assay [1], the “ER-alpha MCF7 HCS (S inf)” value is reported as −96.45%.

Consider `C[C@@H]1Cc2c([nH]c3cc(F)ccc23)[C@@H](c2c(F)cc([C@@H](O)C3CN(CCCF)C3)cc2F)N1CC(F)(F)CO` [Compound 141, 3-((1R,3R)-1-(2,6-difluoro-4-((S)-(1-(3-fluoropropyl)azetidin-3-yl)(hydroxy)methyl)phenyl)-7-fluoro-3-methyl-1,3,4,9-tetrahydro-2H-pyrido[3,4-b]indol-2-yl)-2,2-difluoropropan-1-ol], for which the EC50 in the assay with MCF7 cells (Homo sapiens, MCF7, Table 1a) turned out to be 1.3 nM. The “ER-alpha MCF7 HCS (S inf)” value in assay [1] is given as −100%.

As to `C[C@@H]1Cc2c([nH]c3cccc(F)c23)[C@@H](c2c(F)cc([C@H](O)C3CN(CCCF)C3)cc2F)N1CC(F)(F)CO` [Compound 143, 3-((1R,3R)-1-(2,6-difluoro-4-((R)-(1-(3-fluoropropyl)azetidin-3-yl)(hydroxy)methyl)phenyl)-5-fluoro-3-methyl-3,4-dihydro-1H-pyrido[3,4-b]indol-2(9H)-yl)-2,2-difluoropropan-1-ol], in the assay on MCF7 cells (Homo sapiens, MCF7, Table 1a), the EC50 came to 0.035 nM. Besides, in assay [1], the “ER-alpha MCF7 HCS (S inf)” value is −101%.

For the compound `C[C@@H]1Cc2c([nH]c3cccc(F)c23)[C@@H](c2c(F)cc([C@@H](O)C3CN(CCCF)C3)cc2F)N1CC(F)(F)CO` [Compound 144, 3-((1R,3R)-1-(2,6-difluoro-4-((S)-(1-(3-fluoropropyl)azetidin-3-yl)(hydroxy)methyl)phenyl)-5-fluoro-3-methyl-3,4-dihydro-1H-pyrido[3,4-b]indol-2(9H)-yl)-2,2-difluoropropan-1-ol], in the assay on MCF7 cells (Homo sapiens, MCF7, Table 1a), the EC50 is 0.028 nM. The “ER-alpha MCF7 HCS (S inf)” value in assay [1] is recorded as −101%.

`C[C@@H]1Cc2c([nH]c3ccccc23)[C@@H](c2c(F)cc(C(N)C3CN(CCCF)C3)cc2F)N1CC(F)(F)CO` (stereo partly drawn) [Compound 145, 3-((1R,3R)-1-(4-(amino(1-(3-fluoropropyl)azetidin-3-yl)methyl)-2,6-difluorophenyl)-3-methyl-3,4-dihydro-1H-pyrido[3,4-b]indol-2(9H)-yl)-2,2-difluoropropan-1-ol]: the EC50 with MCF7 cells (Homo sapiens, MCF7, Table 1a) was 0.072 nM. Besides, the “ER-alpha MCF7 HCS (S inf)” value in assay [1] is listed as −103%.

What is called EC50 is the concentration that produces a half-maximal response.

(Values after patent US20170362228A1, “TETRAHYDRO-PYRIDO[3,4-b]INDOLE ESTROGEN RECEPTOR MODULATORS AND USES THEREOF” (Genentech, Inc., priority 2016, published 2017).)
